Laboratory results as given in ChEMBL document CHEMBL5241090, “A comprehensive overview of β-carbolines and its derivatives as anticancer agents” (Eur J Med Chem, 2021).
pIC50: −log10 of the molar value. In brackets after ≈: the same amount, converted by molar mass.

Columns and labels:
[1] = target: Cyclin-dependent kinase 2/cyclin A (Homo sapiens, UniProt P24941); test: Inhibition of CDK2/Cyclin A (unknown origin); assay type: protein-complex assay
L1210 = test: Cytotoxicity against mouse L1210 cells; assay type: functional, cell-based
MOLT-4F = test: Cytotoxicity against human MOLT-4F cells; assay type: functional, cell-based
MT4 = test: Cytotoxicity against human MT4 cells; assay type: functional, cell-based
[2] = target: Serine/threonine-protein kinase PLK1 (Homo sapiens, UniProt P53350); test: Inhibition of PLK1 (unknown origin)
Sequence of Serine/threonine-protein kinase PLK1 (P53350 whole entry): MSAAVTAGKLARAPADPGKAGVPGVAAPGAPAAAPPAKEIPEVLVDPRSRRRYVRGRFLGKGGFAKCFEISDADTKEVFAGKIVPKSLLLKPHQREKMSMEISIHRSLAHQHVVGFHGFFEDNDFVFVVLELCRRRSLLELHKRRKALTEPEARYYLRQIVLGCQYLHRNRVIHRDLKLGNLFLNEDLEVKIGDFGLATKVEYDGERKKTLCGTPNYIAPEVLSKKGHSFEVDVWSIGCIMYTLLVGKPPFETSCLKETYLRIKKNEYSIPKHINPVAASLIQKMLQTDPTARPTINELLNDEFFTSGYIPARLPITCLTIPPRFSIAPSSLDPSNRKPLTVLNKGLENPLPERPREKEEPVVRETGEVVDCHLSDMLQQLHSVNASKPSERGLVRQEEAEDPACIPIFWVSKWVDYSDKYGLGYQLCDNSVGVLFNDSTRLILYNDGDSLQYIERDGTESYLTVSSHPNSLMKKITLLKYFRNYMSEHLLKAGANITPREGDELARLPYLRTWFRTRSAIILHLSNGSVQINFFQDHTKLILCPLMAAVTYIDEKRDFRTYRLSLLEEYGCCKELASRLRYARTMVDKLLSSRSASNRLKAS

RAW264.7 = test: Cytotoxicity against mouse RAW264.7 cells; assay type: functional, cell-based
HL-60 = test: Cytotoxicity against human HL-60 cells; assay type: functional, cell-based; conditions: Homo sapiens, HL-60; read-out: IC50
A549 = test: Cytotoxicity against human A549 cells; assay type: functional, cell-based
HCT-116 = test: Cytotoxicity against human HCT-116 cells; assay type: functional, cell-based
NCI-H460 = test: Cytotoxicity against human NCI-H460 cells; assay type: functional, cell-based
BT-474 = test: Cytotoxicity against human BT-474 cells; assay type: functional, cell-based
MOLT-4 = test: Cytotoxicity against human MOLT-4 cells; assay type: functional, cell-based
THP-1 = test: Cytotoxicity against human THP-1 cells; assay type: functional, cell-based
[3] = target: Serine/threonine-protein kinase haspin (Homo sapiens, UniProt Q8TF76); test: Inhibition of HASPIN (unknown origin)
Sequence of Serine/threonine-protein kinase haspin (Q8TF76 whole entry): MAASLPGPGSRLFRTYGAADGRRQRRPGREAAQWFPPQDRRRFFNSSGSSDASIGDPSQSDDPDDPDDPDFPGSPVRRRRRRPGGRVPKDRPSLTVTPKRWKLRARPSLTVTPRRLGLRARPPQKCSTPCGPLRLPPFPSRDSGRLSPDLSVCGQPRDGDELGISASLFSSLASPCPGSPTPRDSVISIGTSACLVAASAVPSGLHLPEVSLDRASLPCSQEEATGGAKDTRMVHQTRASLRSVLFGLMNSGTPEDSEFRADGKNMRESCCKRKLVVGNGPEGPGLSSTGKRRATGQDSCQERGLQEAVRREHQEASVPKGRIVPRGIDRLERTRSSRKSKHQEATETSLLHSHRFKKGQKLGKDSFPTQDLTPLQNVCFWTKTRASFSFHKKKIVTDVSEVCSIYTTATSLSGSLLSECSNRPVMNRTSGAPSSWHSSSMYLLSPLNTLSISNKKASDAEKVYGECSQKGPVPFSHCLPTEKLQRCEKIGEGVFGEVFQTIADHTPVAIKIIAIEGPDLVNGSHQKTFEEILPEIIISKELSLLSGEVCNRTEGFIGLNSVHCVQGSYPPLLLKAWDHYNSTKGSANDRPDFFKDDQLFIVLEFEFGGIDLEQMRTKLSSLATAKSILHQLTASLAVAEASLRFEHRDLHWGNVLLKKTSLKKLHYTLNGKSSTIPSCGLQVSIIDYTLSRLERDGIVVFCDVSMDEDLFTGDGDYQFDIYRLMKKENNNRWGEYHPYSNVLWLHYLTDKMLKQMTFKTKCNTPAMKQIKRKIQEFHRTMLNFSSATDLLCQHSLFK

CCCC[n+]1ccc2c3ccccc3n(Cc3ccccc3)c2c1-c1ccccc1Cl
pIC50 [1]: 4.57

COc1ccc2[nH]c3c(c2c1)CCN1OCSC[C@@H](N)C31 (some centres undefined)
IC50 (L1210): 5 ng/mL (≈ 0.0164 µM)
IC50 (MOLT-4F): 6.2 ng/mL (≈ 0.0203 µM)
IC50 (MT4): 5 ng/mL (≈ 0.0164 µM)

COc1ccc2c3cc[n+](CCCc4ccccc4)c(C)c3n(Cc3cccc(Cl)c3)c2c1
pIC50 [2]: 6.05

CN1CCN(C(=O)[C@H]2Cc3c([nH]c4ccccc34)CN2Cc2ccc3ccccc3c2Br)CC1
pIC50 (RAW264.7): 4.75

COc1ccc(-c2nc(C(=O)Nc3nc4ccc([N+](=O)[O-])cc4s3)cc3c2[nH]c2ccccc23)cc1
pIC50 (HL-60): 5.84
pIC50 (A549): 5.84
pIC50 (HCT-116): 5.84
pIC50 (NCI-H460): 5.84
pIC50 (BT-474): 5.84
pIC50 (MOLT-4): 5.84
pIC50 (THP-1): 5.84

Cc1nccc2c1[nH]c1cc(O)ccc12
pIC50 [3]: 6.11
